In BigSolDB 2.1:

Question: Which results are given for Cc1ccc(NC(=O)C(C)Cl)cc1 (stereo not given)?
Answer: solubility (mole fraction) (in 2-butanone, 271.23 K): 0.0774; solubility (mole fraction) (in 2-butanone, 275.52 K): 0.0829; solubility (mole fraction) (in 2-butanone, 280.9 K): 0.0892; solubility (mole fraction) (in 2-butanone, 285.45 K): 0.105; solubility (mole fraction) (in 2-butanone, 291.46 K): 0.115; solubility (mole fraction) (in 2-butanone, 296.73 K): 0.128; solubility (mole fraction) (in 2-butanone, 302.41 K): 0.13; solubility (mole fraction) (in 2-butanone, 307.63 K): 0.149; solubility (mole fraction) (in 2-butanone, 313.15 K): 0.173; solubility (mole fraction) (in 2-butanone, 319.11 K): 0.208; solubility (mole fraction) (in acetone, 271.96 K): 0.0616; solubility (mole fraction) (in acetone, 283.37 K): 0.0767; solubility (mole fraction) (in acetone, 287.02 K): 0.0811; solubility (mole fraction) (in acetone, 290.81 K): 0.0861; solubility (mole fraction) (in acetone, 294.37 K): 0.0917; solubility (mole fraction) (in acetone, 300.04 K): 0.105; solubility (mole fraction) (in acetone, 302.89 K): 0.114; solubility (mole fraction) (in acetone, 307.95 K): 0.136; solubility (mole fraction) (in acetone, 310.94 K): 0.15; solubility (mole fraction) (in acetone, 315.55 K): 0.155; solubility (mole fraction) (in toluene, 273.24 K): 0.00517; solubility (mole fraction) (in toluene, 278.33 K): 0.00719; solubility (mole fraction) (in toluene, 285.5 K): 0.00929; solubility (mole fraction) (in toluene, 290.93 K): 0.0125; solubility (mole fraction) (in toluene, 297.29 K): 0.0168; solubility (mole fraction) (in toluene, 301.24 K): 0.02; solubility (mole fraction) (in toluene, 307.73 K): 0.0278; solubility (mole fraction) (in toluene, 312.06 K): 0.0356; solubility (mole fraction) (in toluene, 315.66 K): 0.0413; solubility (mole fraction) (in toluene, 321.66 K): 0.0579
